From patent US20060009480A1, “Sinomenine and sinomenine compounds, synthesis and use” (priority 2002, published 2006)

Legend:
Wistar rat [1] = assay: Social recognition in the Wistar rat; assay type: in vivo; conditions: dose of 20 mg/kg (printed for Example 13); second encounter after 2 hours
From the text: Initially described in 1982 by THOR and HOLLOWAY (J. Comp. Physiol., 1982, 96, 1000-1006), the social recognition test has subsequently been proposed by various authors (DANTZER et al., Psychopharmacology, 1987, 91, 363-368; PERIO et al., Psychopharmacology, 1989, 97, 262-268) for studying the mnemocognitive effects of new compounds. The test is based on the natural expression of the olfactory memory of the rat and its natural tendency to forget, and allows evaluation of memorisation, by recognition of a young congeneric animal, by an adult rat. A young rat (21 days), taken at random, is placed for 5 minutes in the cage housing an adult rat. With the aid of a video device, the experimenter observes the social recognition behaviour of the adult rat and measures its overall duration. The young rat is then removed from the adult rat's cage and is placed in its own cage until the second introduction. The adult rat is given the compound under test and, after 2 hours, is again brought into the presence (5 minutes) of the young rat. The social recognition behaviour is then observed again and its duration measured. The assessment criterion is the difference (T2−T1), expressed in seconds, between the “recognition” times of the 2 encounters.

Wistar rat [2] = assay: Object recognition in the Wistar rat; assay type: in vivo; conditions: dose of 3 mg/kg; second session 24 hours later
From the text: The object recognition test in the Wistar rat was initially developed by ENNACEUR and DELACOUR (Behav. Brain Res., 1988, 31, 47-59). The test is based on the spontaneous exploratory activity of the animal and has the characteristics of episodic memory in humans. This memory test is sensitive to ageing (SCALI et al., Eur. J. Pharmacol., 1997, 325, 173-180) and to cholinergic dysfunctions (BARTOLINI et al., Pharm. Biochem. Behav. 1996, 53(2), 277-283) and is based on the differences in the exploration of 2 objects of fairly similar shape—one familiar, the other new. Prior to the test, the animals are habituated to the environment (an enclosure without an object). In the course of a first session, the rats are placed (3 minutes) in the enclosure, in which there are 2 identical objects. The duration of exploration is measured for each object. In the course of the second session (3 minutes), 24 hours later, 1 of the 2 objects is replaced by a new object. The duration of exploration is measured for each object. The assessment criterion is the difference, Delta, expressed in seconds, between the exploration times for the new object and for the familiar object in the course of the second session.

NaNO2 induced anoxia = NaNO2 induced anoxia in mice; assay type: in vivo, mouse; conditions: 70 mg/kg p.o.; NaNO2 225 mg/kg ip

Compound	difference (T2−T1) between the recognition times of the 2 encounters (Wistar rat [1]) [s]	difference, Delta, between the exploration times for the new object and the familiar object (Wistar rat [2]) [s]	prolongation of survival (NaNO2 induced anoxia) [%]
COC1=CC2C3Cc4c(Br)cc(OC)c(O)c4C2(CCN3C)CC1O (stereo not drawn) [Example 13, (9α,13α)-1-Bromo-3,7-dimethoxy-17-methyl-7,8-didehydromorphinan-4,6-diol]	-36		
COC1=CC2C3Cc4c(Cl)cc(OC)c(O)c4C2(CCN3C)CC1O (stereo not drawn) [Example 4, (9α,13α)-1-Chloro-3,7-dimethoxy-17-methyl-7,8-didehydromorphinan-4,6-diol]		10	
CCC(=O)Oc1c(OC)cc(Cl)c2c1C13CCN(C)C(C2)C1C=C(OC)C(OC(=O)CC)C3 (stereo not drawn) [Example 5, (9α,13α)-1-Chloro-3,7-dimethoxy-17-methyl4-(propionyloxy)7,8-didehydromorphinan-6-yl propionate]	-31		31
